These are literature values, as cited in patent US11419915B2, “Compositions and methods for the treatment of malnutrition” (VitalneXt B.V., priority 2015, dated 2022).

Structures are written as SMILES.

The conditions of the series: dose of 80 mg/kg bodyweight ursolic acid from an ethanolic extract of Sambucus chinensis; rat plasma.

Take `C[C@H]1[C@H](C)CC[C@]2(C(=O)O)CC[C@]3(C)C(=CC[C@@H]4[C@@]5(C)CC[C@H](O)C(C)(C)[C@@H]5CC[C@]43C)[C@H]12` [ursolic acid, 3-beta-3-hydroxy-urs-12-ene-28-oic-acid]: the oral bioavailability is 0.6%.
